Consider two molecules from article PMC4055767, “Selective Chemical Inhibition of agr Quorum Sensing in Staphylococcus aureus Promotes Host Defense with Minimal Impact on Resistance” (PLoS Pathogens, 2014).

One experiment deals with T1, AgrA (Staphylococcus aureus, UniProt P0A0I7).
T1 construct: plasmid-encoded AgrA (pCM63) in S. aureus Δagr reporter strain AH3048
As to the kind of experiment: AgrA-dependent agr::P3 lux reporter in agr-null S. aureus ([…]), positive control. In kind it is cell-based.

The target in experiment [1] is AgrA (AgrAC, C-terminal DNA binding domain) (Staphylococcus aureus, UniProt P0A0I7). In words: EMSA with purified AgrAC and FAM-labeled […] bp DNA duplex; supported by AgrA-driven agr::P3 lux reporter in agr-null S. aureus. For orientation: In EMSA bound probe runs differently from free probe, usually more slowly.
Sequence of AgrA (AgrAC, C-terminal DNA binding domain) (P0A0I7 137-238): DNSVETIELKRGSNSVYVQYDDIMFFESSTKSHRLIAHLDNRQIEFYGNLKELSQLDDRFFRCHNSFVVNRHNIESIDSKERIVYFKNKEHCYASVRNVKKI

In general, IC50 refers to the concentration needed to halve the response being measured.

T1 sequence (P0A0I7 whole entry): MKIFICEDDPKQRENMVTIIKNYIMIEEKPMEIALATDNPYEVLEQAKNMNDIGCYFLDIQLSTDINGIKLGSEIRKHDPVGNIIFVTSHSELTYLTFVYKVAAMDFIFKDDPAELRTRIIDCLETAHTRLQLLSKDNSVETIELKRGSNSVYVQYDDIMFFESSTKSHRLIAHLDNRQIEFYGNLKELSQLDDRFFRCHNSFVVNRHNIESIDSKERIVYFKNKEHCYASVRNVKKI

As to `O=C(O)c1cc(-c2ccc(F)cc2F)ccc1O` [diflunisal], on AgrA, the “AgrA-dependent agr::P3 lux reporter in agr-null S. aureus (1.56-100 μM), positiv” value is “diflunisal and 4-phenoxyphenol, compounds published by others as inhibitors of AgrAc DNA binding ability”. `CC(C)c1ccc(S(=O)(=O)c2n[nH]n3c2nc(=O)c2ccccc23)cc1` [savirin, 3-(4-propan-2-ylphenyl) sulfonyl-1H-triazolo [1,5-a] quinazolin-5-one] registered an IC50 in experiment [1] of 83 µM.
